Results from BindingDB's records for doi:10.1021/ml300128f (The Scripps Research Institute, 2012).

Target: Elastase (Pseudomonas aeruginosa (strain ATCC 15692 / DSM 22644 / CIP 104116 / JCM 14847 / LMG 12228 / 1C / PRS 101 / PAO1), UniProt P14756)
Test: Antagonist activity at Pseudomonas aeruginosa LasB using Abz-Ala-Gly-Leu-Ala-p-Nitro-Benzyl-Amide as substrate incubated for 30 mins prior to substrate addition by FRET assay

Sequence of Elastase (P14756 whole entry): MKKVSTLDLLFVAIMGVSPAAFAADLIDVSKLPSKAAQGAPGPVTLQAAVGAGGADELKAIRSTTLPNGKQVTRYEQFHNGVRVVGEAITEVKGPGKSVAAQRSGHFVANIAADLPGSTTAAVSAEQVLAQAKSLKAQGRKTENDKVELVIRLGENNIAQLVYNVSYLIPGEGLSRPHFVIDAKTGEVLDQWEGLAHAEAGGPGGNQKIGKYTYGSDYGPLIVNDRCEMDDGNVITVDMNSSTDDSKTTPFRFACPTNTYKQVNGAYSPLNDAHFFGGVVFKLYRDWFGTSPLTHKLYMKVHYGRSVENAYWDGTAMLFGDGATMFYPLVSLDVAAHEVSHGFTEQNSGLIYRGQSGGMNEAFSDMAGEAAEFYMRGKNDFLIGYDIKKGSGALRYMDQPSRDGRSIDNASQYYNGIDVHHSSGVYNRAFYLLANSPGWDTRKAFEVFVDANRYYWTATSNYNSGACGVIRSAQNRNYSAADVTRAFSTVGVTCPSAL

Row | Compound | IC50
1 | Cc1c(O)c(=S)ccn1C | 80.6 µM
2 | CCc1c(O)c(=S)ccn1CC | 392 µM
